Source: ChEMBL document CHEMBL3085720, “Divergent structure-activity relationships of structurally similar acetylcholinesterase inhibitors” (J Med Chem, 2013)

The molecules below were run against T1, Acetylcholinesterase (Mus musculus, UniProt P21836) (assay: Inhibition of wild type mouse AChE expressed in HEK293 cells using ATCh as substrate).
T1 sequence (P21836 whole entry): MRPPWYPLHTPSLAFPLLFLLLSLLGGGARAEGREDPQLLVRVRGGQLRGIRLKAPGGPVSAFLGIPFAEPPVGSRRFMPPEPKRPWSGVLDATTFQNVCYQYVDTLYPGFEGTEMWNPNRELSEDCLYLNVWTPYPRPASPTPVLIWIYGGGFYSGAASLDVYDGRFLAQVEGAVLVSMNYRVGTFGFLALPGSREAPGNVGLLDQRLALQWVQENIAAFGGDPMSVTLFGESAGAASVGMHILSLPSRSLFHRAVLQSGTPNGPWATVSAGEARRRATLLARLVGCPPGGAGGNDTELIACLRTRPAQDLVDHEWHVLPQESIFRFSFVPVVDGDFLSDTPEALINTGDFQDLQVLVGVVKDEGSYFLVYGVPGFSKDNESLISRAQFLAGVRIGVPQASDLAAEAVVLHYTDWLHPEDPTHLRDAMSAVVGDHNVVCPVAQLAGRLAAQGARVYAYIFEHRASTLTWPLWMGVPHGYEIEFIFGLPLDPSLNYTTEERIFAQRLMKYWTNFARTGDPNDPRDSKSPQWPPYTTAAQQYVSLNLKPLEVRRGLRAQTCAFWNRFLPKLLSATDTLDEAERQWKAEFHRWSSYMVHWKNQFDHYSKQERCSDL
Type: cell-based

| SMILES | IC50 [nM] |
| --- | --- |
| CC[N+](C)(CC)CCC[n+]1c(-c2ccccc2)c2cc(N)ccc2c2ccc(N)cc21 [PROPIDIUM] | 1100 |

The molecules below were run against T1, Acetylcholinesterase.

| SMILES | IC50 [nM] |
| --- | --- |
| C/C=C1\[C@H]2C=C(C)C[C@]1(N)c1ccc(=O)[nH]c1C2 [HUPERZINE A] | 82 |

These molecules were tested against T1, Acetylcholinesterase (assay: Inhibition of mouse recombinant AChE using acetylthiocholine iodide as substrate by Ellman's method).

| SMILES | IC50 [µM] |
| --- | --- |
| CCN(CC)CCNS(=O)(=O)c1ccc(Cl)cc1 | 88 |
| CCN(CC)CCNS(=O)(=O)c1cccc(Cl)c1 | 18 |
| CCN(CC)CCNS(=O)(=O)c1ccc(OC)cc1 | 119 |
| CCN(CC)CCNS(=O)(=O)c1ccc(C)cc1 | 135 |
| CCN(CC)CCNS(=O)(=O)c1ccc(F)cc1 | 62 |
| CCN(CC)CCNS(=O)(=O)c1ccc([N+](=O)[O-])cc1 | 95 |
| CCN(CC)CCNS(=O)(=O)c1ccc(Cl)cc1F | 91 |
| CCN(CC)CCNS(=O)(=O)c1ccc(F)c(F)c1 | 50 |
| CCN(CC)CCNS(=O)(=O)c1cccc2ccccc12 | 44 |
| CCN(CC)CCNS(=O)(=O)c1ccc2ccccc2c1 | > 700 |
| CCN(CC)CCNS(=O)(=O)c1ccc(-c2ccc(Cl)cc2)cc1 | > 700 |
| CCN(CC)CCNS(=O)(=O)Cc1ccccc1 | 139 |
| CCN(CC)CCNS(=O)(=O)Cc1ccc(F)cc1 | 40 |
| CCN(CC)CCNS(=O)(=O)Cc1ccc(Cl)cc1 | 12 |
| CCN(CC)CCNS(=O)(=O)Cc1ccc(C(F)(F)F)cc1 | 12 |
| CCN(CC)CCNS(=O)(=O)Cc1ccc(Br)cc1 | 10 |
| CCN(CC)CCNS(=O)(=O)Cc1ccc(Cl)c(Cl)c1 | 7 |
| CCN(CC)CCNS(=O)(=O)c1ccccc1 | 31 |
| CCN(CC)CCNS(=O)(=O)c1ccccc1F | 41 |
| CCN(CC)CCNS(=O)(=O)c1cccc(OC)c1 | 7 |
| CCN(CC)CCNS(=O)(=O)c1cccc(C(F)(F)F)c1 | 22 |

These molecules were tested against T1, Acetylcholinesterase (assay: Binding affinity to mouse AChE by isothermal titration calorimetry).

| SMILES | Kd [µM] |
| --- | --- |
| CCN(CC)CCNS(=O)(=O)c1cccc(Cl)c1 | 44.4 |
| CCN(CC)CCNS(=O)(=O)Cc1ccc(Cl)cc1 | 11.1 |
| CCN(CC)CCNS(=O)(=O)Cc1ccc(C(F)(F)F)cc1 | 9.2 |
| CCN(CC)CCNS(=O)(=O)c1cccc(C(F)(F)F)c1 | 14.8 |
